This passage reports Caco value and inhibition results from patent publication US20100168075A1, “Novel 2-Azetidinone Derivatives As Cholesterol Absorption Inhibitors For The Treatment Of Hyperlipidaemic Conditions” (ASTRAZENECA AB, priority 2005, published 2010).

Data set [1] relates to Caco-2 cells. In words: Absorption in a Caco-2 cells model. It counts as in vitro ADME. The protocol:
Absorption of the compounds of formula (I) was tested in a Caco-2 cells model (Gastroenterology 1989, 96, 736): […]

Data set [2] relates to ^14C-cholesterol absorption. The data set can be described thus: In vivo testing of cholesterol absorption inhibitors (A). The conditions noted are these: Mus musculus, po; 0.2 μmol/kg, gavage, procedure A, C57BL/6 female mice. Here is the method:
In Vivo Testing of Cholesterol Absorption Inhibitors (A)
C57BL/6 female mice were maintained on regular chow diet and housed in individual cages to collect faeces. Mice were fasted for 3 hours and then gavaged with vehicle or compound. Half an hour later the mice were gavaged with radiolabelled cholesterol. Six hours after the ^14C-cholesterol gavage blood samples were taken via the tail and plasma prepared to determine how much cholesterol were absorbed. 24 hours after the gavage of ^14C-cholesterol the mice were bled and plasma were prepared for analysis. Faeces were collected for 24 hours to assess absorption efficiency.

Turning to `CC(=O)[O-].C[N+](C)(C)CCNC(=O)[C@@H](CC1CCCCC1)NC(=O)CNC(=O)COc1ccc([C@@H]2[C@@H](SCC(O)c3ccc(F)cc3)C(=O)N2c2ccc(F)cc2)cc1` (stereo partly drawn) [Example 17, N-{[4-((2R,3R)-1-(4-fluorophenyl)-3-{[(2R or $)-2-(4-fluorophenyl)-2-hydroxyethyl]thio}-4-oxoazetidin-2-yl)phenoxy]acetyl}glycyl-3-cyclohexyl-N-[2-(trimethylammonio)ethyl]-D-alaninamide acetate], in data set [1], the Caco value stood at 0.61 ×10⁻⁶ cm/s.

For the molecule `N[C@H](CCCCNC(=O)CNC(=O)COc1ccc([C@@H]2[C@@H](SCC(O)c3ccc(F)cc3)C(=O)N2c2ccc(F)cc2)cc1)C(=O)O` (stereo partly drawn) [Example 10, N^6-(N-{[4-((2R,3R)-1-(4-fluorophenyl)-3-{[2-(4-fluorophenyl)-2-hydroxyethyl]thio}-4-oxoazetidin-2-yl)phenoxy]acetyl}glycyl)-D-lysine], the inhibition (in general, the relative decrease from the control value, in per cent) at 0.2 µmol/kg in data set [2] amounted to 38%.
